Experiments:
[1] = system: breast cancer cell line (SKBR); experiment: MTS in vitro cytotoxicity, SKBR; assay type: cell-based; details: 72 hours, Table 1, read-out: IC50 values against SKBR
Experimental: (§1) All cells were kept in a humidified atmosphere with 5% CO2 at 37° C.; cells from confluent monolayers were removed from flasks by trypsin/EDTA solution and their viability determined by the trypan blue exclusion test.
(§2) Cell growth was determined by the [3-(4,5-dimethylthiazol-2-yl)-5-(3-carboxymethoxyphenyl)-2-(4-sulfophenyl)-2H-tetrazolium, inner salt, (MTS test, Promega, Southampton, UK), a colorimetric assay based on the ability of the viable cells to reduce a soluble yellow tetrazolium salt to blue formazan. 10,000 ovarian cancer cells or 3,000 fibroblast cells for example were seeded per well onto 96-well plates in 100 μl of the appropriate culture medium. 24 hr after sowing the cells, the media was removed and the cells were treated by adding 100 μl of the compound media solutions at the appropriate concentrations. cis-[Pt(NH3)2(malSAHA−2H)], cisplatin and cis-[Pt(NH3)2(mal)] were prepared freshly in cell culture media. […] The maximum percentage of dmso present in any well was less than 0.1% (v/v). cis-[Pt(NH3)2(malBel—2H)], belinostat and malbelinostat were freshly prepared in dimethyl formamide (DMF) and diluted in culture media prior to the MTS assay. The maximum percentage of DMF present in any well was 0.5% (v/v). A range of concentrations between 1 μM and 100 μM was used.
(§3) After 72 hr of treatment, 20 μl of the MTS reagent was added to each well and the plates incubated for 2 hr at 37° C. […] The percentages of surviving cells relative to untreated controls were determined.

[2] = system: colon cancer cell line (SW480); experiment: MTS in vitro cytotoxicity, SW480; assay type: cell-based; details: 72 hours, Table 1, read-out: IC50 values against SW480
Experimental: as §1, §2, §3

[3] = system: liver cell lines (Hep-G2); experiment: MTS in vitro cytotoxicity, Hep-G2; assay type: cell-based; details: 72 hours, Table 1, read-out: IC50 values against Hep-G2
Experimental: as §1, §2, §3

[4] = system: SW480 (colon cancer cells); experiment: Cellular uptake of Pt (FAAS), SW480; assay type: cell-based; details: 10 μM, 72 hours treatment
Experimental: Cellular uptake of Pt compounds was measured in SKBR, SW480, A549, A2780P and CH1 cells. The cells were seeded in 60 mm tissue culture dishes with 10 mL of their respective medium and after overnight incubation, the cells were treated with the Pt complexes for 72 h at 10 μM concentration. The cell monolayers at the end of the incubation with the Pt complexes were washed (twice) with ice-cold phosphate buffered saline (PBS), trypsinized and harvested into cold (4° C.) PBS. Cell suspensions were centrifuged and the pellets were stored in PBS at −80° C. until assayed. Afterward, the pellets were digested by high pressure microwave mineralization and Pt content was determined by flameless atomic absorption spectrophotometry (FAAS). The results of cellular Pt uptake were corrected for adsorption effects. All experiments were made in triplicate.^17

DNA in A2780 P cells = experiment: Pt binding to DNA in cultured cells (ICP-MS), A2780 P; assay type: cell-based, human; details: 4 hours of cell treatment; for DNA-bound Pt in A2780 P: 40 μM of Pt complexes
Experimental: (§4) Pt DNA binding of Pt complexes was measured in SW480 cells (colon cancer) and CH1 cells (lymphoma) or alternatively A2780 P and A2780 cisR cells (sensitive and resistant to cisplatin respectively). The cells were seeded in 60 mm tissue culture dishes with 10 ml of their respective medium. After overnight incubation the medium was removed and replaced with 10 ml of the respective medium containing a platinum complex giving a final concentration of 43 or 40 μM depending on the experiment. The cells were incubated with a given Pt complex for either 2 or 4 h depending on the experiment. The cells were trypsinised and centrifuged. The supernantant was removed and the cells washed twice with 1×PBS and centrifuged. The pellet was re-suspended in DNA buffer to which Proteinase K (20 mg/mL) and 10% SDS were added. After a gentle shake and incubation at 45° C. for two hours, RNAse (100 mg/mL) was added and the cells were incubated at 37° C. overnight. The volume of supernatant was noted and an equal volume of phenol was added.
The resulting mixture was shook for 10 min, then centrifuged for 10 min at 10° C. The supernatant was transferred into a new centrifuge tube (15 ml) and the volume was noted. To this was added an equal volume of phenol and chloroform/isoamylalcohol (24:1). The resulting mixture was shook for 10 min, then centrifuged for 10 min at 10° C. (3000 RPM). The supernatant was transferred into a new centrifuge tube (15 mL) and the volume was noted. To this was added an equal volume of chloroform. The resulting mixture was shook for 10 min, then centrifuged for 10 min at 10° C. The supernatant was transferred into a new centrifuge tube (15 mL) and the volume was noted. To this was added a volume that is 1/10 of the supernatant of 3 M sodium acetate (Ph 5.2) and three times the volume of cold 100% isopropanol (from freezer). The solution was shook gently until the DNA is precipitated. […] The absorbance of the DNA by was measured by UV spectrophotometry at 260 nm and 280 nm and the concentration of DNA calculated. Platinum bound to DNA was determined by ICP-MS.

DNA in A2780 cisR cells = experiment: Pt binding to DNA in cultured cells (ICP-MS), A2780 cisR; assay type: cell-based, human; details: 4 hours of cell treatment
Experimental: as §4
(§5) The resulting mixture was shook for 10 min, then centrifuged for 10 min at 10° C. The supernatant was transferred into a new centrifuge tube (15 ml) and the volume was noted. […] The absorbance of the DNA by was measured by UV spectrophotometry at 260 nm and 280 nm and the concentration of DNA calculated. Platinum bound to DNA was determined by ICP-MS.

[5] = system: caspase-3 activation in A2780 cisR cells; experiment: Caspase-3 colourimetric assay, A2780 cisR; assay type: cell-based, human; details: 72 hr, IC50 and IC75, FIG. 21
Experimental: Both floating and attached cells were collected by centrifugation. Cells, at a density of 1.5×10^6 cells/ml were washed with PBS and then re-suspended in chilled cell lysis buffer (supplied in the Caspase-3 colourimetric assay kit, Calbiochem, UK). Cells were incubated on ice for 10 min and then centrifuged for 1 min at 10,000 g. The cytosolic fraction (supernatant) was collected into a fresh tube and 50 μl (2 mg/ml) of each protein sample was transferred to a 96 well plate and diluted with lysis buffer. A 50 μl aliquot of X2 reaction buffer, containing 10 mM DTT was added, followed by 5 μl of 4 mM DEVD-pNA substrate to give a final concentration of 200 μM. The plate was then incubated at 37° C. for 1-2 h. OD was determined at 400 nm using an Anthos HT-II microtitreplate reader. The fold increase in caspase-3 and -9 activities was determined by comparing results to that obtained with un-induced control.

[6] = system: DNA in CH1 cells (lymphoma); experiment: Pt binding to DNA in cultured cells (ICP-MS), CH1; assay type: cell-based; details: 43 μM of Pt complexes, 2 hours of cell treatment
Experimental: as §4, §5

Compound | IC50 [1] | IC50 [2] | IC50 [3] | Uptake of Pt complexes into SW480 [4] | DNA-bound Pt in A2780 P (DNA in A2780 P cells) | DNA binding in A2780 P compared with cisplatin (in words) (DNA in A2780 P cells) | DNA binding in A2780 cisR compared with cisplatin (in words) (DNA in A2780 cisR cells) | caspase-3 activity [5] | DNA-bound Pt in CH1 [6] | DNA-bound Pt in A2780 cisR (DNA in A2780 cisR cells; 40 μM of Pt complexes)
[NH2][Pt]1([NH2])[O]C(=O)C(Cc2ccc(NC(=O)CCCCCCC(=O)NO)cc2)C(=O)[O]1 [cis-[Pt(NH3)2(malSAHA−2H)], cis-[Pt(NH3)2(malSAHA−2H)].3H2O] | 9.9 ± 1.8 µM | 13.4 ± 3.9 µM | 47.8 ± 4 µM | 5422 ± 222 pmol Pt/2 × 10^6 cell | – | – | – | – | – | –
[NH2][Pt]1([NH2])[O]C(=O)C(Cc2ccc(NS(=O)(=O)c3ccc(/C=C/C(=O)NO)cc3)cc2)C(=O)[O]1 [cis-[Pt(NH3)2(malBel−2H)], cis-[Pt(NH3)2(malBel−2H)].1.5H2O] | – | – | – | – | 5,175 · 10^−15 ± 27 moles of Pt/μg of DNA | binds DNA in A2780 P and A2780 cisR cancer cells and to a greater extent than cisplatin | binds DNA in A2780 P and A2780 cisR cancer cells and to a greater extent than cisplatin | an increase in both Caspase-3 and -9 activities | – | –
N.N.[Cl][Pt][Cl] [cisplatin, cis-[Pt^II(NH3)2Cl2], reference compound] | 7.5 ± 1.2 µM | 8 ± 0.3 µM | 39.8 ± 3.5 µM | 391.95 ± 51.95 pmol Pt/2 × 10^6 cell | 200 · 10^−15 ± 60 moles of Pt/μg of DNA | – | – | – | 10.5 · 10^−15 moles of Pt/μg of DNA | 665 · 10^−15 ± 6 moles of Pt/μg of DNA

Reference: US8901337B2, “Metal complexes having dual histone deacetylase inhibitory and DNA-binding activity” (Royal College of Surgeons in Ireland, priority 2009, dated 2014)
